Source: the supplement of paper PMC10331698
± gives the standard deviation of the averaged measurements.

Legend:
Experiment in all cases: level (log10 ratio to DMSO vehicle control); higher = higher biomarker level / cell amount than vehicle control
Details in all cases: in DMSO
[1] = compound: C=C(C)C(=O)OCC(F)(F)C(F)(F)C(F)(F)C(F)(F)C(F)(F)C(F)(F)C(F)(F)F
Protocol: (§1)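 BioMAP Diversity Plus panel of 12 human primary cell co-culture systems (3C, 4H, LPS, SAg, BT, BF4T, BE3C, CASM3C, HDF3CGF, KF3CT, MyoF, Mphg). Compounds were added 1 h before stimulation and left for 24 h (MyoF 48 h; BT 72 h for soluble read-outs or 6 d for IgG). Biomarkers were read by ELISA, cytotoxicity by SRB, PBMC viability and proliferation by Alamar Blue. Each well value was divided by the mean of 8 DMSO control wells on the same plate and log10 transformed; duplicate blinded samples were tested at 4 concentrations.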

[2] = compound: CC(C)(C)C(=O)CC(=O)C(F)(F)C(F)(F)C(F)(F)F [(Heptafluorobutanoyl)pivaloylmethane]
Protocol: as §1

[3] = compound: NC(=O)C(F)(F)C(F)(F)C(F)(F)C(F)(F)C(F)(F)C(F)(F)C(F)(F)F [Perfluorooctanamide]
Protocol: as §1

[4] = compound: O=C(O)C(F)(F)C(F)(F)C(F)(F)C(=O)O [Hexafluoroglutaric acid]
Protocol: as §1

[5] = compound: O=C(O)C(F)(F)OC(F)(F)C(F)(F)OC(F)(F)C(F)(F)C(F)(F)C(F)(F)F [Perfluoro-3,6-dioxadecanoic acid]
Protocol: as §1

[6] = compound: O=S(=O)(O)C(F)(F)C(F)(F)C(F)(F)C(F)(F)C(F)(F)C(F)(F)C(F)(F)C(F)(F)F [Perfluorooctanesulfonic acid]
Protocol: as §1

[7] = compound: O=S(=O)(O)C(F)(F)C(F)(F)C(F)(F)C(F)(F)C(F)(F)C(F)(F)C(F)(F)C(F)(F)F [Potassium perfluorooctanesulfonate]
Protocol: as §1

Test System	level (log10) ([1]; 6700 nM)	level (log10) ([1]; 20000 nM)	level (log10) ([2]; 6700 nM)	level (log10) ([2]; 20000 nM)	level (log10) ([2]; 60000 nM)	level (log10) ([3]; 6700 nM)	level (log10) ([3]; 20000 nM)	level (log10) ([3]; 60000 nM)	level (log10) ([4]; 6700 nM)	level (log10) ([4]; 20000 nM)	level (log10) ([4]; 60000 nM)	level (log10) ([5]; 6700 nM)	level (log10) ([5]; 20000 nM)	level (log10) ([5]; 60000 nM)	level (log10) ([6]; 6700 nM)	level (log10) ([6]; 20000 nM)	level (log10) ([6]; 60000 nM)	level (log10) ([7]; 6700 nM)	level (log10) ([7]; 20000 nM)	level (log10) ([7]; 60000 nM)
LPS:CCL2/MCP-1	0.007 ± 0.0071	0.017 ± 0.0085	-0.01 ± 0.0014	-0.0055 ± 0.018	0.001 ± 0.038	-0.0295 ± 0.015	0.001 ± 0.0099	-0.0765 ± 0.012	-0.0135 ± 0.026	-0.012 ± 0.011	-0.004 ± 0.013	0.008 ± 0.0085	0.0005 ± 0.0078	-0.042 ± 0.05	0.0025 ± 0.00071	0.005 ± 0.021	0.0075 ± 0.005	0.0025 ± 0.0021	0.007 ± 0.016	0.039 ± 0.0057
SAg:CD40	-0.0375 ± 0.00071	-0.0425 ± 0.011	-0.0125 ± 0.011	-0.0335 ± 0.0021	-0.0515 ± 0.0078	-0.0215 ± 0.028	-0.0195 ± 0.0064	-0.021 ± 0.033	-0.012 ± 0.0014	-0.0225 ± 0.022	0.0095 ± 0.0092	0.003 ± 0.0028	-0.0195 ± 0.016	-0.08 ± 0.052	-0.0165 ± 0.05	-0.032 ± 0.038	-0.054 ± 0.013	-0.005 ± 0.0057	-0.0205 ± 0.039	-0.032 ± 0.042
3C:CD87/uPAR	-0.0235 ± 0.054	-0.015 ± 0.048	-0.0255 ± 0.056	-0.0435 ± 0.026	-0.0255 ± 0.033	0.0075 ± 0.011	0.004 ± 0.0099	0.0045 ± 0.0092	-0.0075 ± 0.018	-0.0105 ± 0.028	0.0025 ± 0.013	0.0065 ± 0.013	-0.0145 ± 0.011	-0.083 ± 0.058	0.04 ± 0.037	0.0285 ± 0.022	0.0235 ± 0.036	-0.0065 ± 0.076	0.002 ± 0.017	0.015 ± 0.048
BF4T:MMP-1	-0.0075 ± 0.015	0.016 ± 0.011	0.0005 ± 0.0035	-0.0145 ± 0.0092	-0.011 ± 0.02	-0.0195 ± 0.0078	0.0055 ± 0.005	-0.0385 ± 0.011	0.0035 ± 0.013	0.0215 ± 0.012	0.018 ± 0.0099	-0.046 ± 0.013	0.01 ± 0.037	0.0625 ± 0.015	0.02 ± 0.0014	0.029 ± 0.013	0.039 ± 0.047	0.028 ± 0.017	0.046 ± 0.0028	0.062 ± 0.011
BF4T:uPA	0.0015 ± 0.032	-0.0055 ± 0.005	-0.006 ± 0.011	-0.0085 ± 0.005	-0.025 ± 0.0014	-0.0175 ± 0.015	-0.004 ± 0.038	0.016 ± 0.027	-0.009 ± 0.016	-0.0015 ± 0.015	-0.003 ± 0.0028	0.0105 ± 0.005	0.008 ± 0.013	0.025 ± 0.031	0.0005 ± 0.016	0.0175 ± 0.00071	0.0375 ± 0.023	-0.004 ± 0.0028	0.01 ± 0.016	0.0395 ± 0.043
3C:HLA-DR	0.0085 ± 0.011	-0.0005 ± 0.019	-0.0205 ± 0.013	-0.0285 ± 0.005	-0.092 ± 0.035	0.001 ± 0.034	0.002 ± 0.017	0.0095 ± 0.019	0.0225 ± 0.035	0.0315 ± 0.047	0.038 ± 0.042	0.0345 ± 0.04	0.021 ± 0.044	0.016 ± 0.071	0.0005 ± 0.011	-0.0095 ± 0.021	0.0095 ± 0.023	0.0075 ± 0.0092	0.0075 ± 0.0021	0.0215 ± 0.0064
SAg:CD62E/E-Selectin	-0.001 ± 0.024	0.0155 ± 0.011	-0.003 ± 0.042	-0.0235 ± 0.005	-0.106 ± 0.04	-0.0135 ± 0.035	-0.0265 ± 0.00071	0.0145 ± 0.0092	-0.004 ± 0.033	-0.008 ± 0.052	-0.0025 ± 0.0078	0.027 ± 0.058	0.0485 ± 0.025	0.065 ± 0.081	0.012 ± 0.014	0.0205 ± 0.0021	0.04 ± 0.028	-0.004 ± 0.0057	0.0315 ± 0.013	0.033
BE3C:CXCL11/I-TAC	-0.0085 ± 0.016	-0.0095 ± 0.0021	-0.0005 ± 0.04	0.01 ± 0.037	0.024 ± 0.028	0.0015 ± 0.013	0.004 ± 0.0042	0 ± 0.0014	0.0045 ± 0.028	-0.002 ± 0.024	0.0045 ± 0.013	0.0945 ± 0.00071	0.124 ± 0.011	0.0095 ± 0.022	-0.0085 ± 0.00071	-0.0735 ± 0.028	-0.555 ± 0.15	-0.002 ± 0.0042	-0.113 ± 0.012	-0.203 ± 0.024
3C:SRB	0.0095 ± 0.015	-0.0105 ± 0.022	-0.001 ± 0.0057	-0.003 ± 0.0071	-0.061 ± 0.075	0.007 ± 0.013	0.0095 ± 0.005	-0.015 ± 0.0099	-0.004 ± 0.0014	-0.005 ± 0.014	0.0075 ± 0.028	-0.016 ± 0.0071	-0.0055 ± 0.019	-0.149 ± 0.074	0.018 ± 0.0042	-0.008 ± 0.0099	-0.0625 ± 0.015	0.0105 ± 0.025	-0.0195 ± 0.033	-0.045 ± 0.042
SAg:SRB	-0.001 ± 0.0099	-0.0095 ± 0.021	-0.0035 ± 0.0092	-0.0025 ± 0.005	-0.031 ± 0.034	0.002 ± 0.0071	-0.0005 ± 0.0064	-0.009 ± 0.0014	-0.0055 ± 0.00071	-0.0105 ± 0.016	-0.0035 ± 0.016	-0.016 ± 0.0014	-0.0085 ± 0.021	-0.0855 ± 0.037	0.004 ± 0.0042	-0.0095 ± 0.0078	-0.0265 ± 0.011	-0.0055 ± 0.028	-0.0255 ± 0.035	-0.0335 ± 0.0035
SAg:CXCL8/IL-8	-0.024 ± 0.031	0.0185 ± 0.0064	-0.0195 ± 0.046	-0.062 ± 0.024	-0.098 ± 0.14	-0.019 ± 0.041	-0.0255 ± 0.0021	0.056	-0.011	-0.041 ± 0.042	0.0285 ± 0.077	-0.018 ± 0.0028	-0.0295 ± 0.018	-0.0385 ± 0.022	-0.015	0.01 ± 0.0057	0.041 ± 0.0085	-0.0055 ± 0.018	0.0145 ± 0.036	0.025 ± 0.027
BT:sTNF-alpha	-0.042 ± 0.0099	-0.0145 ± 0.013	-0.075 ± 0.064	-0.0605 ± 0.016	0.0315 ± 0.18	-0.0175 ± 0.011	0.0215 ± 0.056	-0.129 ± 0.095	0.026 ± 0.13	0.0415 ± 0.039	0.116 ± 0.039	0.0675 ± 0.086	0.0875 ± 0.08	-0.046 ± 0.051	-0.047 ± 0.095	-0.0585 ± 0.054	0.0105 ± 0.079	0.003 ± 0.076	0.0225 ± 0.069	-0.039 ± 0.016
